Reference: patent US10344330B2, “Glatiramer acetate response biomarker mRNA potency assay” (Mylan Inc., priority 2013, dated 2019)
“And” between values parts separate entries of the source, which are not always exact repeats. Identical values can stand only once.

How the values were obtained:
[1] = test system: IL-1b secreted by LN cells; test: IL-1b secretion by GA-stimulated LN cells, MSD 9-plex ELISA (Example II); format: cell-based, mouse; conditions: for IL-1b secretion response ratio (treated cell medium to control DCCM1 medium): 21 hr
[2] = test system: mIL-2 mRNA in primary LN cells; test: mIL-2 mRNA by real-time PCR in ex vivo stimulated LN cells of immunized (SJL/J×BALB/C)F1 mice (Example I); format: cell-based, mouse
Method: For each of the three experiments summarized in Table 1, female (SJL/J×BALB/C) F1 hybrid (Jackson Laboratory) mice were immunized by footpad injection with either 250 μg GMA (Mylan Pharmaceuticals, Inc.) and CFA (Sigma Aldrich), or Mannitol and CFA (as a negative control). The GA solution was diluted to 5 mg/mL with Dulbecco's Phosphate-buffered saline. A dose solution was then prepared by mixing the diluted GA solution (5 mg/mL) and CFA (1:1) until well-emulsified. Each mouse received a total injection volume of 0.1 mL (250 μg GA). Animals were immunized on Day 0. Immunized animals were sacrificed via cervical dislocation on Day 10 following immunization. Lymph nodes in the axillary and popliteal regions were removed aseptically in a purifier clean bench, and transferred into a sterile petri dish containing about 5 mL of sterile RPMI 1640 medium. The LN were washed 3 times with −5 mL of RPMI medium, and the LN cells isolated by pressing the LN with a syringe plunger. The cell suspension was transferred to a sterile 50 mL conical tube, washed in about 40 mL of RPMI medium by centrifuging at about 200×g for 10 minutes at about 4° C., and re-suspended in RPMI 1640 medium for cell counting. The cell suspension was centrifuged at about 200×g for 10 minutes at about 4° C. and re-suspended in ice cold enriched DCCM-1 medium. The LN cells (2.5×10^6 cells/cm^2) were plated in the wells of a 48-well tissue culture plate and stimulated with GA or controls.
After incubation at about 37° C. in a humidified CO2 incubator for the indicated time, total RNA was isolated from the treated cells using the RNeasy Mini Kit (Qiagen, Cat. #74104). Cells were lysed in RNA lysis buffer, transferred to Qiagen spin columns, washed, and the RNA eluted with DEPC-treated water from the column. cDNA was synthesized from each RNA sample using the High Capacity cDNA Reverse Transcription Kit (Applied Biosystems, Cat. #4368814). The PCR reactions were carried out using TaqMan Universal PCR Master Mix (Applied Biosystems, Cat. #4304437) and specific primers/probe for the target cytokine and reference internal controls. Primers/probes for mouse cytokines IL-2 (Cat. #4331182; ID Mm00434256_m1), IL-4 (Cat. #4331182; ID Mm00445259_m1), IL-5 (Cat. #4331182; ID Mm00439646_m1), IFN-γ (Cat. #4331182; ID Mm01168134_m1), IL-10 (ID Mm00439614_m1), and TNF-α (Mm00443260_g1) were obtained from Life Technologies. Expression of cytokine mRNA was quantitatively analyzed using a Real-Time PCR system (7500, Applied Biosystems).
(DCCM1 from Beit Haemek Ltd.; Cat. No. 05 010 1A). There was no MBP treatment for the 2-hour groups. (MBP from Bachem; Cat No. H-1964.0001) For each evaluation time DCCM1 was studied and compared, i.e. 2 hours represents 2 hours with DCCM1, 4 hours=4 hours, etc., and served as representative control for each timepoint.
For Experiment 3, a 96-well plate format was used, and RNA isolation was carried out using an SV 96 Total RNA Isolation System (Promega). Immunization of Groups 3A and 4A are described in Table 1. […] Y-axis: linear mRNA fold-changes of mIL-2. X-axis: log Cop and GA (Mylan GMA) concentration values. The best fit for the data set was performed using the logarithmic model.
Group 1B animals were female (SJL/J×BALB/C) F1 hybrid (Jackson Laboratory) mice immunized by footpad injection with either 250 μg GA and CFA, or Mannitol and CFA (as a negative control). A dose solution was prepared by mixing a diluted GA solution (5 mg/mL) and CFA (1:1).

[3] = BALB/cByJ, immunized GA Intraplantar
[4] = BALB/cByJ, immunized GA Lower Limb
[5] = C57BL10J, immunized GA Lower Limb
[6] = Experiment 1, GA-immunized (SJL/J×BALB/C)F1, 2 hour post stimulation, GA 10, ConA 2.5 μg/mL
[7] = Experiment 1, GA-immunized (SJL/J×BALB/C)F1, 4 hour post stimulation, GA 10, MBP 10, ConA 2.5 μg/mL
[8] = Experiment 1, GA-immunized (SJL/J×BALB/C)F1, 6 hour post stimulation, GA 10, MBP 10, ConA 2.5 μg/mL
[9] = Experiment 1, GA-immunized (SJL/J×BALB/C)F1, 24 hour post stimulation, GA 10, MBP 10, ConA 2.5 μg/mL
[10] = Experiment 3, Group 3A (GA + CFA), stimulation 2.5 μg/mL, 6 hours
[11] = Experiment 3, Group 4A controls, *Animals not immunized, MBP 10, ConA 2.5 μg/mL, 6 hours
[12] = Group 1B (GA + CFA), 4 hours post-stimulation, GA 10, MBP 10, ConA 2.5 μg/mL, reference 18S rRNA
[13] = Group 1B (GA + CFA), 6 hours post-stimulation, GA 10, MBP 10, ConA 2.5 μg/mL, reference 18S rRNA
[14] = Group 2B (Mannitol + CFA), 4 hours post-stimulation, GA 10, MBP 10, ConA 2.5 μg/mL, reference 18S rRNA
[15] = Group 2B (Mannitol + CFA), 6 hours post-stimulation, GA 10, MBP 10, ConA 2.5 μg/mL, reference 18S rRNA
[16] = Experiment 3, Group 3A (GA + CFA), stimulation 10 μg/mL, 6 hours

| Molecule | IL-1b secretion response ratio (treated cell medium to control DCCM1 medium) [1, 3] | IL-1b secretion response ratio (treated cell medium to control DCCM1 medium) [1, 4] | IL-1b secretion response ratio (treated cell medium to control DCCM1 medium) [1, 5] | IL-1b secretion response ratio (treated cell medium to control DCCM1 medium) ([1]; CD-1, immunized GA Lower Limb) | mIL-2 mRNA Level [2, 6] | mIL-2 mRNA Level [2, 7] | mIL-2 mRNA Level [2, 8] | mIL-2 mRNA Level [2, 9] | mIL-2 mRNA Level [2, 10] | mIL-2 mRNA Level [2, 11] | mIL-2 mRNA Level [2, 12] | mIL-2 mRNA Level [2, 13] | mIL-2 mRNA Level [2, 14] | mIL-2 mRNA Level [2, 15] | mIL-2 mRNA Level [2, 16] | further results |
| --- | --- | --- | --- | --- | --- | --- | --- | --- | --- | --- | --- | --- | --- | --- | --- | --- |
| Concanavalin A [ConA, reference compound] | 11.73 | 8.70 | 1.42 | 2.86 | 183.4 fold change vs control | 131.5 fold change vs control | 105.0 fold change vs control | 16.2 fold change vs control | 111.0 fold change vs control | 91.4 fold change vs control | 256.3 fold change vs control | 54.3 fold change vs control | 517.9 fold change vs control | 277.9 fold change vs control |  |  |
| L-glutamic acid polymer with L-alanine, L-lysine and L-tyrosine, acetate (salt) [GA] |  |  |  |  | 5.3 fold change vs control | 12.2 fold change vs control | 20.8 fold change vs control | 3.6 fold change vs control | 20.2 fold change vs control |  | 16.7 fold change vs control | 10.2 fold change vs control | 1.8 fold change vs control | 1.4 fold change vs control | 26.1 fold change vs control | IL-1β secretion, dose response to GA (in words) ([1]; BALB/cByJ and CD-1, primed by intraplantar injection): Dose response of IL-1β was detected; mIL-2 mRNA Level ([2]; Experiment 3, Group 3A (GA + CFA), stimulation 1 μg/mL, 6 hours): 9.7 fold change vs control; mIL-2 mRNA Level ([2]; Experiment 3, Group 3A (GA + CFA), stimulation 5 μg/mL, 6 hours): 22.6 fold change vs control; mIL-2 mRNA Level ([2]; Experiment 3, Group 3A (GA + CFA), stimulation 15 μg/mL, 6 hours): 27.3 fold change vs control; mIL-2 mRNA Level ([2]; Experiment 3, Group 3A (GA + CFA), stimulation 25 μg/mL, 6 hours): 34.7 fold change vs control; mIL-2 mRNA Level ([2]; Experiment 3, Group 4A (Mannitol + CFA), stimulation 5 μg/mL, 6 hours): 3.0 fold change vs control; mIL-2 mRNA Level ([2]; Experiment 3, Group 4A (Mannitol + CFA), stimulation 10 μg/mL, 6 hours): 1.6 fold change vs control; mIL-2 mRNA Level ([2]; Experiment 3, Group 4A (Mannitol + CFA), stimulation 25 μg/mL, 6 hours): 1.7 fold change vs control and 1.5 fold change vs control; mIL-2 mRNA level increase vs DCCM-1-stimulated control ([2]; Group 1B, 4 and 6 hours (text summary of Table 8)): at least 10 fold |
| MBP: myelin basic protein, a negative control (protein, UniProt P02686 1-304, looked up) Myelin basic protein: MGNHAGKRELNAEKASTNSETNRGESEKKRNLGELSRTTSEDNEVFGEADANQNNGTSSQDTAVTDSKRTADPKNAWQDAHPADPGSRPHLIRLFSRDAPGREDNTFKDRPSESDELQTIQEDSAATSESLDVMASQKRPSQRHGSKYLATASTMDHARHGFLPRHRDTGILDSIGRFFGGDRGAPKRGSGKDSHHPARTAHYGSLPQKSHGRTQDENPVVHFFKNIVTPRTPPPSQGKGRGLSLSRFSWGAEGQRPGFGYGGRASDYKSAHKGFKGVDAQGTLSKIFKLGGRDSRSGSPMARR | 1.15 | 0.96 | 1.17 | 1.00 |  | 1.0 fold change vs control | 0.3 fold change vs control | 0.6 fold change vs control |  | 1.5 fold change vs control | 0.5 fold change vs control | 0.3 fold change vs control | 0.4 fold change vs control | 0.5 fold change vs control | 0.9 fold change vs control |  |
